Patent publication EP4796171A2 (Zealand Pharma A/S, priority 2017, dated 2018)
Several values for one entry are separate records, joined by “and”; a condition that tells them apart may be missing. Equal entries are not always repeated.

Experiments:
human GLP-2 receptors = molecular target: T1, human GLP-2 receptors (Homo sapiens, UniProt O95838, D470N); assay: GLP-2 receptor efficacy assay (cAMP AlphaScreen); format: cell-based
T1 sequence (O95838 1-553 D470N): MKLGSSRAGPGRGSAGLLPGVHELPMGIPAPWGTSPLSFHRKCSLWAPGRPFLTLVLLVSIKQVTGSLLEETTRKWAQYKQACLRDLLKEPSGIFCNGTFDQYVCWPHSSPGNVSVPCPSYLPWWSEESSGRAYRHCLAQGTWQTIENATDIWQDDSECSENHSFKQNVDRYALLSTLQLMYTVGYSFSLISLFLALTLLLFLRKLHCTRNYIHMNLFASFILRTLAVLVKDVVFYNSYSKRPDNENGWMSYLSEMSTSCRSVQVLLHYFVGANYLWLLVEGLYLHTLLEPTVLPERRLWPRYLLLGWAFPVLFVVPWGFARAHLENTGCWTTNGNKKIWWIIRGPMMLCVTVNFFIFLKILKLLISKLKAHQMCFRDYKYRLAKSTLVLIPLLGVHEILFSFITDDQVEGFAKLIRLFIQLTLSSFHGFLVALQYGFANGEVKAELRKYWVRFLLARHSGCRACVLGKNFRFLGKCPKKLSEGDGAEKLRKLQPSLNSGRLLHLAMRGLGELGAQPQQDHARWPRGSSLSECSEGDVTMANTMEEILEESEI
Description: The hGLP2-R was purchased from MRC-geneservice, Babraham, Cambridge as an Image clone: 5363415 (11924-117). For subcloning into a mammalian expression vector, primers for subcloning were obtained from DNA-Technology, Risskov, Denmark. The 5' and 3' primers used for the PCR reaction include terminal restriction sites for cloning and the context of the 5' primer is modified to a Kozak consensus without changing the sequence of the product encoded by the ORF. A standard PCR reaction was run using Image clone 5363415 (11924-117) as a template with the above mentioned primers and Polymerase Herculase II Fusion in a total vol. of 50µl. The generated PCR product was purified using GFX PCR and Gel band purification kit, digested with restriction enzymes and cloned into the mammalian expression vector using Rapid DNA Ligation Kit. Ligation reaction was transformed to XL10 Gold Ultracompetent cells and colonies were picked for DNA production using Endofree Plasmid maxi kit. Subsequent sequence analysis was conducted by MWG Eurofins, Germany.
HEK293 cells were transfected using the Lipofectamine PLUS transfection method. The day before transfection, HEK293 cells were seeded in two T75 flasks at a density of 2 x 10^6 cells / T75 flask in cell culturing medium without antibiotics. On the day of transfection, cells were washed with 1x DPBS and medium was replaced with Optimem to a volume of 5 mL / T75 flask before addition of Lipofectamine-plasmid complexes were added gently and drop wise to the cells in T75 flasks and replaced with growth medium after 3 hours and again to growth medium supplemented with 500µg/mL G418 after 24 hours. After 4 weeks in G418 selection, clones were picked and tested in a functional assay.
The cAMP AlphaScreen® assay from Perkin Elmer was used to quantitate the cAMP response to activation of the GLP2 receptor. […] Table 2: GLP-2R EC50 measurements

[1] = Phase 2 clinical trial, PK profile of ZP1848 and metabolites in SBS patients; format: in vivo, human; details: for Conc.: plasma
Protocol: A phase 2 clinical trial was conducted to i.a. determine the PK profile of ZP1848 and metabolites in human SBS patients.
The study was designed as a randomized, cross-over and double-blinded with three different doses of ZP1848 (10 mg, 1 mg, 0.1 mg) in 16 SBS patients.
The 18 SBS patients (16 patients completed the study) were randomized evenly and in a double-blinded fashion to each of the six cross-over dose level combinations: 10 mg/1 mg, 10 mg/0.1 mg, 1 mg/10 mg, 1 mg/0.1 mg, 0.1 mg/10 mg, 0.1 mg/1 mg of ZP1848. The patients were injected once daily (QD) subcutaneously with the above doses of ZP1848.
Blood samples for PK analysis were collected on several study visits throughout the study period: the study comprised a 1st baseline balance study (4 days), a 1st treatment period (21 days) including a 1st treatment balance study (last 4 days of 1st treatment period), followed by a wash-out period (at least 4 weeks); and a 2nd baseline balance study (4 days), a 2nd treatment period (21 days) including a 2nd treatment balance study (last 4 days of 2nd treatment period) and a follow-up period (at least 4 weeks).
PK sampling was performed at visit 11 (1st treatment, balance study) and visit 17 (second day of 2nd baseline study - after a wash out period), and again at visit 25 (2nd treatment balance study) and at visit 29 (last day of follow-up period).
At day visit 11 and visit 25 a full PK profile in steady state was investigated. PK samples were taken prior to injection of ZP1848, and at the following time points (+/- 10 minutes) after trial product administration: 1h, 2h, 4h, 6h, 8h, 10h, 12h and 24h. Each PK sample contained 2 mL of blood, resulting in a total of […] blood drawn for PK purposes. The plasma sample was immediately stored at -80°C after sampling.
Plasma samples were analyzed after immunoaffinity extraction followed by liquid chromatography mass spectrometry (LC-MS/MS). For each patient plasma concentrations were used for calculation of the pharmacokinetic parameters using the non-compartmental approach in Excel. Plasma terminal elimination half-life (T½) was determined as In(2)/ke where ke is the magnitude of the slope of the log linear regression of the log concentration versus time profile during the terminal phase.

EC50 (human GLP-2 receptors): 0.052 nM | in vitro potency (human GLP-2 receptors; in words, relative to ZP1848): comparable to ZP1848
Substance: H-HGEGTFSSELATILDALAARDFIAWLIATKITDK-OH [ZP2469]
plasma level ([1]; in words, relative to ZP1848 after administration of ZP1848): multiple times higher than that of ZP1848 | Conc. ([1]; Day 0 (visit 11 or 25, treatment balance study), ZP1848 SC once daily, individual subjects): 2.22 nM and 0.556 nM and 3.64 nM and 4.75 nM and 4.66 nM and 4.49 nM and 1.04 nM and 14.7 nM and 6.77 nM and 4.34 nM and 4.94 nM | Conc. ([1]; Day 28-56 (visit 17 or 29, after wash-out/follow-up), individual subjects): 0.394 nM and 0.0528 nM and 0.0564 nM and 0.288 nM and 0.236 nM and 0.195 nM and 0.133 nM and 0.209 nM and 0.46 nM and 0.116 nM and 0.112 nM | Half-life ([1]; terminal, from Day 0 and wash-out/follow-up concentrations, individual subjects): 5.2 days and 7.9 days and 8.7 days (2×) and 11 days (2×) and 7.2 days (2×) and 12 days and 9.5 days and 9.6 days
